{"source": "patent US10183915B2", "about": "“Axially chiral isomers, and preparation methods therefor and pharmaceutical uses thereof” (MEDSHINE DISCOVERY INC., priority 2015, dated 2019)", "key": {"[1]": {"assay": "Stability of compounds in human plasma", "format": "in vitro ADME", "experimental": "Test 5: Evaluation of the Stability of Compounds in Rat Plasma and Human Plasma\n2. Experimental Procedures and Methods • 2.1 Prior to the experiment, the frozen plasma stored at −40° C. was thawed at room temperature and incubated in a 37° C. water bath for 5-10 min; centrifuged at 4000 rpm for 5 min, to remove impurities and lipids in the plasma. Measured the value of pH, if required, adjusted it to 7.4±0.1. • 2.2 Prepared 400 μM intermediate solution by diluting 4 μL of the working solution (10 mM) with 96 μL DMSO. • 2.3 Preparation of incubation samples: Remove 3 μL of intermediate solution (400 μM) to mix with 597 μL of blank plasma to achieve 2 μM of final concentration. Incubate each time point samples (0 min, 10 min, 30 min, 60 min, 120 min, in duplicate) at 37° C. in water bath. • 2.4 An aliquot of 100 μL samples of the final spiked plasma for each time point were removed to sample collected plates, added 400 μL of stop solution (200 ng/mL Tolbutamide plus 20 ng/mL Buspirone in 50% ACN/MeOH) to precipitate protein. Mixed thoroughly. • 2.5 Centrifuged each plate at 4,000 rpm for 20 min. Transfered an aliquot of supernatant (100 μL) from each well to sample plate and mixed with 200 μL ultra pure water. Shaked the plate at 800 rpm for about 10 min before submitting to LC-MS/MS analysis. 3. Experimental Data Analysis\nThe ratio of the peak area to the internal standard peak area was used to assess the decrease of the test compound to be measured. The % remaining of the test compound after incubation in plasma was calculated using following equation: % Remaining=100×(PAR at appointed incubation time/PAR at T0 time)\nwherein PAR is the peak area ratio of analyte versus internal standard (IS)\nThe appointed incubation time points are: 0 min, 10 min, 30 min, 60 min, 120 min; T0: Samples prior to incubation."}, "[2]": {"assay": "In vivo pharmacokinetic study in male Sprague-Dawley rats (IV and PO)", "parameters": "species or system Sprague-Dawley rat", "settings": "for MRT inf: read-out: MRT0-inf", "experimental": "Test 6: In Vivo Pharmacokinetic Study of the Test Compounds in Rats\nTo study the pharmacokinetic behavior of the compounds in rats and to evaluate their pharmacokinetic characteristics, their concentrations in plasma were determined by LC/MS/MS.\nAppropriate amount of sample was added to a certain amount of pure water, the pH were adjusted to 7-8, to prepare to be 1 mg/mL (filtered and clarified) and 2 mg/mL (with a few particles of suspension) for IV and PO administration. • 2.4 Administration • 18 male SD rats were randomly assigned to 6 treatment groups, 3 rats in each group. Male rats were administrated IV and PO respectively after fasting overnight. The IV dosage was 2 mg/kg, the dose volume was 2 mL/kg, the PO dosage was 10 mg/kg, and the dose volume was 5 mL/kg. 3. Experimental Procedure\nFor IV group, 250 μL blood samples were collected before administration, and 0.083, 0.25, 0.5, 1, 2, 4, 8, 24 hours after administration, and placed in K2-EDTA anticoagulant tube, centrifuged at 3000 rpm for 15 minutes, plasma was separated, stored at −80° C. For PO Group, blood samples were collected before administration, and 0.25, 0.5, 1, 2, 4, 8, 24 hours after administration, and the other operations were the same as group IV. The content of the test compounds in the plasma of rats after administration of IV and PO were determined by LC/MS/MS method. The linear range of the assay was 6.00-18000 nM, and the lower limit of quantification was 6 nM; the plasma samples were analyzed by pretreatment with precipitated proteins."}, "human URAT1": {"biological_target": "T1, human URAT1 (Homo sapiens, UniProt Q96S37)", "T1 construct": "host or cells: HEK293", "T1 sequence (Q96S37 1-553)": "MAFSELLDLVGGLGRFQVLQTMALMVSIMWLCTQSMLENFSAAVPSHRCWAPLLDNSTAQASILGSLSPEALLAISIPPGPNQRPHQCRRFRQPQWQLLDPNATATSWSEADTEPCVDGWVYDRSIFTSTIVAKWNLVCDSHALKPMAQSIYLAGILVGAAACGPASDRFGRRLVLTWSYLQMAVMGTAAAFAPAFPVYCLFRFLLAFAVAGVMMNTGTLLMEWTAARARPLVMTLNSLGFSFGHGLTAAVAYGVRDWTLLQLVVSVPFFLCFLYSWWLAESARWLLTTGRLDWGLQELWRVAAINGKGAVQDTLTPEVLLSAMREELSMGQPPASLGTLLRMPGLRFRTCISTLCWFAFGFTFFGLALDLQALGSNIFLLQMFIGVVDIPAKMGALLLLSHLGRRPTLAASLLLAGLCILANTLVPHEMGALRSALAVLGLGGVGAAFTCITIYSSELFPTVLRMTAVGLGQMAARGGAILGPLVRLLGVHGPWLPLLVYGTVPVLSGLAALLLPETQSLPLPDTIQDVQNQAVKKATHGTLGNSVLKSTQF", "assay": "Inhibition of URAT1-mediated uptake of 14C-labeled uric acid in stably transfected HEK293 cells", "format": "cell-based", "settings": "multiple parallel tests", "quoted_text": "A HEK293 cell line stably transfected with URAT-1 (uric acid transporter) gene was used to determine the IC50 value of the compound to inhibit the reabsorption of uric acid.\nURAT-1 (HEK293) cell lines: HEK293 cell line with human URAT1 stable transfected (the cell line was constructed by WuXi AppTec in Shanghai).\n4) The cells were diluted with culture medium to 2.5×10^5 cells/mL. The diluted cells was seeded into 24-well plates (800 μg/hole, 2×10^5 cells/hole) coated with rat tail collagen and the plates were incubated at 37° C. under 5% CO2 overnight.\n1) The cells were inoculated on the 24-well plates and discarded 16-18 hours later. Add 600 μL HBSS buffer to each hole and clean it two times\n2) Absorb the HBSS buffer and then add 180 μL of HBSS buffer to each hole.\n1) Dissolve the compound powder in 100% DMSO. […]\n10 μL of ^14C-Uric acid solution was diluted and added to each well of 24-well plates and the final concentration of ^14C-uric acid was 50 μM. […] Collect the cell lysis in liquid scintillation and read the Tri-Carb signal in liquid scintillation counter after adding the liquid scintillation solution.\nBased on the luminescence data, the inhibitory effect of compounds on URAT-1 was analyzed, and the percentage of inhibition data was calculated. […]"}, "[3]": {"assay": "Stability of compounds in ethanol solutions (heated; SFC chiral purity)", "format": "physicochemical", "settings": "for Enantiomer Excess of Compound: ethanol solution", "text": "Test 3: Evaluation of the Stability of Compounds in Ethanol Solutions.\nAn appropriate amount of test compound was accurately weighed, added into ethanol to obtain an ethanol solution. The ethanol solution of the compound was stirred in a heated oil bath. At the end of the test, the purity and chiral purity of the compound was detected by high performance liquid chromatography (HPLC) or LC-MS (LCMS) and supercritical fluid chromatography (SFC)."}, "[4]": {"assay": "Stability of solid compounds in ambient temperature (15° C., nitrogen cabinet, dark; SFC chiral purity)", "format": "physicochemical", "settings": "for Enantiomer Excess of the Compound: solid", "experimental": "Test 2: Evaluation of the Stability of Solid Compounds in Ambient Temperature.\n20 mg of test compound was placed into 5 mL brown transparent sealed container with stopper and stoned in the nitrogen cabinet (15° C.) in the dark. After the preset storage time, about 2 mg of test compound was accurately weighed, added into ethanol to prepare 1 mg/mL ethanol solution. The purity and chiral purity of the compound was detected by high performance liquid chromatography (HPLC) or LC-MS (LCMS) and supercritical fluid chromatography (SFC)."}, "[5]": {"settings": "male SD rats, IV 2 mpk, 2 mg/kg"}, "[6]": {"settings": "male, Sprague-Dawley, rat, plasma, iv, 2 mg/kg, male SD rats, IV 2 mpk"}, "[7]": {"settings": "male, Sprague-Dawley, rat, plasma, po, 10 mg/kg, male SD rats, PO 10 mpk"}}, "note": "Where two headings read alike, the source gives them in different places.", "data": [{"smiles": "O=C(O)CSc1nnc(Br)n1-c1ccc(C2CC2)c2ccccc12", "note": "(single isomer, unassigned) [(+)-Lesinurad]", "values": [{"measurement": "Stability after co-incubation with human plasma", "setting": "[1]; 2 hours", "result": "very stable"}, {"measurement": "Recovery (% remaining)", "setting": "[1]; human plasma, 2 μM, 37° C., 120 min", "result": 100.4, "unit": "%"}, {"measurement": "recovery at 0 min, 2 μM", "setting": "[1]; human, plasma, pH 7.4, human plasma, 2 μM, 37° C., 0 min, read-out: Recovery (% remaining)", "result": 100, "unit": "%"}, {"measurement": "recovery at 10 min, 2 μM", "setting": "[1]; human, plasma, pH 7.4, human plasma, 2 μM, 37° C., 10 min, read-out: Recovery (% remaining)", "result": 100, "unit": "%"}, {"measurement": "recovery at 30 min, 2 μM", "setting": "[1]; human, plasma, pH 7.4, human plasma, 2 μM, 37° C., 30 min, read-out: Recovery (% remaining)", "result": 99.5, "unit": "%"}, {"measurement": "recovery at 60 min, 2 μM", "setting": "[1]; human, plasma, pH 7.4, human plasma, 2 μM, 37° C., 60 min, read-out: Recovery (% remaining)", "result": 99.4, "unit": "%"}, {"measurement": "Transformation of the atropisomer in vivo", "setting": "[2]; SD rats, IV and PO", "result": "no transformation was observed"}, {"measurement": "AUC0-inf", "setting": "[2]; [5]", "result": "15.03902 ± 1.0268", "unit": "µM·h"}, {"measurement": "Cl", "setting": "[2]; [5]", "result": "5.50 ± 0.36", "unit": "mL/min/kg"}, {"measurement": "Bioavailability", "setting": "[2]; male SD rats, PO 10 mpk vs IV 2 mpk", "result": 44.65, "unit": "%"}, {"measurement": "AUC0-inf", "setting": "[2]; male SD rats, PO 10 mpk, 10 mg/kg", "result": "32.68473 ± 13.43235", "unit": "µM·h"}, {"measurement": "C0", "setting": "[2]; [6]", "result": "11.5 ± 2.72", "unit": "µM"}, {"measurement": "half-life", "setting": "[2]; [6]", "result": "1.61 ± 0.11", "unit": "h"}, {"measurement": "MRT inf", "setting": "[2]; [6]", "result": "2.08 ± 0.08", "unit": "h"}, {"measurement": "Vd", "setting": "[2]; male, Sprague-Dawley, rat, plasma, iv, 2 mg/kg, male SD rats, IV 2 mpk, read-out: Vdss", "result": "0.69 ± 0.03", "unit": "L/kg"}, {"measurement": "Cmax", "setting": "[2]; [7]", "result": "7.76 ± 5.15", "unit": "µM"}, {"measurement": "half-life", "setting": "[2]; [7]", "result": "2.25 ± 0.02", "unit": "h"}, {"measurement": "MRT inf", "setting": "[2]; [7]", "result": "4.09 ± 0.87", "unit": "h"}, {"measurement": "Tmax", "setting": "[2]; male, Sprague-Dawley, rat, plasma, po, 10 mg/kg, male SD rats, PO 10 mpk, read-out: Tmax", "result": "3 ± 1.73", "unit": "h"}, {"measurement": "In vitro potency against URAT1 compared with (−)-Lesinurad and (±)-Lesinurad", "setting": "human URAT1", "result": "obviously higher in vitro potency"}, {"measurement": "Enantiomer Excess of Compound", "setting": "[3]; 37° C., 3 days", "result": "Unchanged"}, {"measurement": "Enantiomer Excess of Compound", "setting": "[3]; 70° C., 3 days", "result": "Unchanged"}, {"measurement": "Enantiomer Excess of Compound", "setting": "[3]; heating time 0 day", "result": 95.9, "unit": "%"}, {"measurement": "Stability in ethanol solutions (SFC purity)", "setting": "[3]; heating to 37° C. and up to 70° C.", "result": "very stable"}, {"measurement": "Enantiomer Excess of the Compound", "setting": "[4]; storing time 0 day", "result": 95.9, "unit": "%"}, {"measurement": "Enantiomer Excess of the Compound", "setting": "[4]; storing time >80 days", "result": "Unchanged"}, {"measurement": "Stability of the solid powder (SFC purity)", "setting": "[4]; storing over 80 days", "result": "very stable"}]}]}
